± gives the expanded uncertainty stated by the source.
Conditions: Crystal; DTA

Triple point temperature: 453.4 ± 1.1 K
SMILES: Nc1ccc(O)c2c1C(=O)c1c(O)cc(Br)c(N)c1C2=O [1,5-diaminobromo-4,8-dihydroxyanthraquinone]

Reference: the NIST ThermoML archive (doi:10.1021/je800646h)
